Source: ChEMBL document CHEMBL1201862, “PubChem BioAssay data set” (2004)
Active and inactive are the calls of the source.

How the values were obtained:
INS1 = experiment: INS-1E survival protection against cytokine death – cell-based, luminescence, retest, dose response (AID 449756); type: functional; conditions: Rattus norvegicus;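 further: cell death triggered by IL-1 beta plus TNF-alpha plus IFN-gamma mixture; protective hits raise ATP signal compared with cytokine alone wells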
Beta-galactosidase = Beta-galactosidase (Escherichia coli, UniProt Q8VNN2); experiment: Dose response counterscreen for EBI2 assay utilizing the enzyme, b-galactosidase.; type: functional
[1] = HGIII-sPLA2 enzyme inhibition potency – biochemical, QFRET, IC50, dose response (AID 743457);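 further: green fluorescence rise as the enzyme cleaves BODIPY PC-A2 in liposomes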
[2] = biological target: T1, Probable nicotinate-nucleotide adenylyltransferase (Staphylococcus aureus (strain N315), UniProt P65502); type: functional, Staphylococcus aureus subsp. aureus N315;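 on IC50 Mean: confirmatory dose-response retesting of NadD inhibitor hits first found in an ultra-high-throughput screen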
[3] = biological target: T2, Apoptotic protease-activating factor 1 (Homo sapiens, UniProt O14727); type: functional
T2 sequence (O14727 whole entry): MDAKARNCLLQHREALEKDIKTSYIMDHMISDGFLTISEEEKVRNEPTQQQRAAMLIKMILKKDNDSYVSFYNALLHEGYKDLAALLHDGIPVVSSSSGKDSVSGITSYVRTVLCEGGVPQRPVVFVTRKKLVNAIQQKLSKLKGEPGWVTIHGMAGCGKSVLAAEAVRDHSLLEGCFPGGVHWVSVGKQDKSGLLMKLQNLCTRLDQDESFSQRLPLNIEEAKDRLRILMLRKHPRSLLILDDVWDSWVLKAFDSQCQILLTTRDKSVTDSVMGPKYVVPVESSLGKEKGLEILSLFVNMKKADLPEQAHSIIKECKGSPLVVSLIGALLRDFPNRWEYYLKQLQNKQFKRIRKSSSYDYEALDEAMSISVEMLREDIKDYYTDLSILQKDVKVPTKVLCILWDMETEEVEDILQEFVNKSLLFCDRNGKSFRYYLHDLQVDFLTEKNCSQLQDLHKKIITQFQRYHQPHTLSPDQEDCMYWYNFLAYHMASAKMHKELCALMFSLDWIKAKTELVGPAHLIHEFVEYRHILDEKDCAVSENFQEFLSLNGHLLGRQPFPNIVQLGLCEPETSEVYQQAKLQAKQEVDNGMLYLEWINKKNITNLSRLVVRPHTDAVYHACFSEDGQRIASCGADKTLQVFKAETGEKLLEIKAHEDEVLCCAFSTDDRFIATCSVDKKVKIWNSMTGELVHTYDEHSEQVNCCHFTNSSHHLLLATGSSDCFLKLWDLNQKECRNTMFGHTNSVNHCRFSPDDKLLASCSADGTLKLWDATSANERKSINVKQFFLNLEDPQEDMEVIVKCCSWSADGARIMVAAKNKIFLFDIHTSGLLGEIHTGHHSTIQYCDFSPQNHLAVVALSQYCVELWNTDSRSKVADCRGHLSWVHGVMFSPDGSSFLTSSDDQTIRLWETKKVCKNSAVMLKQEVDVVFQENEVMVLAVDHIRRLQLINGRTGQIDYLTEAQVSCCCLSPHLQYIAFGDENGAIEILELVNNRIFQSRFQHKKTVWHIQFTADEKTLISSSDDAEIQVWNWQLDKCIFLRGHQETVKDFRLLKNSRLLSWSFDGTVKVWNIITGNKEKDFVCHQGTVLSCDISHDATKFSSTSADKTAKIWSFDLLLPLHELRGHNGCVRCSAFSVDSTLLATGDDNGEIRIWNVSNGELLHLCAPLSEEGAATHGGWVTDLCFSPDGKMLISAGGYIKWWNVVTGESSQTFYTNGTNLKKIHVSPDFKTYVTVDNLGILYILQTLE

[4] = biological target: T1, Probable nicotinate-nucleotide adenylyltransferase; type: functional, Staphylococcus aureus subsp. aureus N315; conditions: read-out: IC50_Mean
[5] = biological target: T3, Sentrin-specific protease 8 (Homo sapiens, UniProt Q96LD8); type: functional
T3 sequence (Q96LD8 whole entry): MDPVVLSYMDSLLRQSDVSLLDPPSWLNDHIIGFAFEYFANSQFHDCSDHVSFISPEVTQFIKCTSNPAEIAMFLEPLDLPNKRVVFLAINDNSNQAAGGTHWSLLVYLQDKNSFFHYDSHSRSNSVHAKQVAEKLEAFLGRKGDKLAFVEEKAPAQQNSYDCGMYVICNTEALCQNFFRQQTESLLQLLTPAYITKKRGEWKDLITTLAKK

[6] = biological target: T3, Sentrin-specific protease 8; type: functional; remark: listed apart in the source
[7] = biological target: T4, Lysine-specific demethylase 4C (Homo sapiens, UniProt Q9H3R0); experiment: inhibition of JMJD2C H3K9me3 demethylation – biochemical, DELFIA europium, cherry-picked samples, dose response (AID 488835); type: functional
T4 sequence (Q9H3R0 whole entry): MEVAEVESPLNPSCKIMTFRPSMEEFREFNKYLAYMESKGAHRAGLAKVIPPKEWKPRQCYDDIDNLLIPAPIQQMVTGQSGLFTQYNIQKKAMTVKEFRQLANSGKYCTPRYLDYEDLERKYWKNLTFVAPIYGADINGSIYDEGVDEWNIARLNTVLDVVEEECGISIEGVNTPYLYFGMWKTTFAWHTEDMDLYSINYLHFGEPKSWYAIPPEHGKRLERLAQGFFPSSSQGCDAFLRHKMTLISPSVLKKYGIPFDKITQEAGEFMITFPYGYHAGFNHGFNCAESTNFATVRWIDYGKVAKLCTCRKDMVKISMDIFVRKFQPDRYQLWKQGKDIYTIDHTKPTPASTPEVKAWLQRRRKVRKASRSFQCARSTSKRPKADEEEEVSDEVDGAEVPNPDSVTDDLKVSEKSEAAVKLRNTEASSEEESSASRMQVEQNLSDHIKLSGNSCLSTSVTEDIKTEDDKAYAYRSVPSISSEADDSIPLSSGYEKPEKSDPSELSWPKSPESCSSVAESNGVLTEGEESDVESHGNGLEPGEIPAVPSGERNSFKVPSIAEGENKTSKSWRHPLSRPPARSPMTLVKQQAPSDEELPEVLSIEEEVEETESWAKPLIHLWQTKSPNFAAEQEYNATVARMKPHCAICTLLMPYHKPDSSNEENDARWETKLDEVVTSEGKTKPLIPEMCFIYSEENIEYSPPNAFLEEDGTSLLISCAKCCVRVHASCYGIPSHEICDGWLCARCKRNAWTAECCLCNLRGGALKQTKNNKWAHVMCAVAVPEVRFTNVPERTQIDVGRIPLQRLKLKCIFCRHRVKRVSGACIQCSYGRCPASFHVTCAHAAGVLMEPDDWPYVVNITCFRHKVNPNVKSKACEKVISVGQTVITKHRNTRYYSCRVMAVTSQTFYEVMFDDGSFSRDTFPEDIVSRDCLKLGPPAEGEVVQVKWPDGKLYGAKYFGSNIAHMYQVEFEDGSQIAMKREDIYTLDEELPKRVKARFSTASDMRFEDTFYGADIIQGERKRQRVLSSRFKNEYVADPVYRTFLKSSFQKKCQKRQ

[8] = IC50 of Artemis nuclease activity blockers – biochemical, fluorescence intensity, dose response (AID 720701); type: functional;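 further: Artemis endonuclease enzyme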
Vero [9] = experiment: viability of Vero cells under compound – cytotoxicity control for flavivirus capping enzyme inhibitors (AID 588742); type: functional; conditions: Chlorocebus sabaeus
Vero [10] = experiment: cells; type: functional, cell-based; conditions: Chlorocebus sabaeus
[11] = fluconazole-exposed Candida albicans growth modulators – fluorescence, retest, confirmation (AID 2467); type: functional, cell-based
NS3 = NS3 (Hepatitis C virus, UniProt A3EZJ3); experiment: PubChem AID 2173; set-up: species or system Hepacivirus hominis
Vero [12] = experiment: cells; type: functional; conditions: Chlorocebus sabaeus
[13] = NIH-3T3 fibroblast cytotoxicity, dose response, cytotoxicity control, cell-based, fluorescence, Alamar Blue, secondary assay (AID 2327); type: functional;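 further: NIH-3T3 mouse fibroblasts cultured with fluconazole at 8 µg/mL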
Kallikrein-7 = Kallikrein-7 (Homo sapiens, UniProt P49862); experiment: Fluorescence Intensity-based biochemical primary high throughput dose response assay to identify activators of kallikrein-7 (K7) zymogen.
[14] = biological target: COUP transcription factor 2 (Homo sapiens, UniProt P24468); experiment: Luminescence-based cell-based high throughput dose response assay to identify inhibitors of COUP-TFII (NR2F2).; type: functional;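 further: HEK293 cells transiently cotransfected with COUP-TFII expression vector and reporter; luciferase reporter luminescence driven by COUP-TFII from the pX2-168 reporter plasmid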
[15] = biological target: Oxysterols receptor LXR-beta (Homo sapiens, UniProt P55055); type: functional, cell-based;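 further: agonist activity at LXR measured by a cell-based luminescence readout across a dose range, run as a counterscreen for daf-12 agonists; HEK293 cells with Gal4-LXR fusion and GAL4-driven luciferase reporter; potency for activation of Gal4-LXR reporter so compounds are agonists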
[16] = general cell-killing toxicity readout – plate reader, dry powder samples, cytotoxicity control for PAX8 inhibitor project, dose response (AID 743021); type: functional, cell-based
Paired box protein Pax-8 = Paired box protein Pax-8 (Homo sapiens, UniProt Q06710); experiment: PAX8 transcriptional activity inhibition in RMG-I – RMG-I cells, luciferase, cherry-pick, dose response (AID 687027); type: functional, cell-based;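 further: luciferase reporter driven by Pax8 target thyroperoxidase promoter measured by SteadyGlo luminescence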
[17] = reduced cellular PGC1a acetyl-lysine signal – cell-based, cherry-picked samples, dose response (AID 720514); type: functional;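 further: potency may reflect raised or lowered acetylation signal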
[18] = HEK293 Cytotoxicity Assay Measured in Cell-Based System Using Plate Reader - 7071-01_Inhibitor_Dose_CherryPick_Activity_Set2.; type: functional
HEK293 = experiment: viability loss in HEK293T cells – cell-based, ATP luminescence, cherry-pick samples, cytotoxicity control, dose response (AID 687005); type: functional; conditions: Homo sapiens;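 further: cells exposed to compound for 48 hours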
[19] = OVCAR8 cell viability loss – plate reader, dry powder samples, PAX8 project, dose response (AID 743197); type: functional, cell-based; conditions: OVCAR-8
[20] = toxicity toward immortalized ovarian surface epithelium – cell-based, plate reader, dry powder samples, cytotoxicity control for PAX8 inhibitor project, dose response (AID 743045); type: functional
[21] = OVCAR-3 cell viability loss – plate reader, dry powder samples, PAX8 inhibitor project, dose response (AID 743044); type: functional, cell-based
[22] = IGROV1 cell killing – plate reader, dry powder samples, PAX8 inhibitor project, dose response (AID 743043); type: functional, cell-based; conditions: IGROV-1
[23] = A2780 cell killing – plate reader, dry powder samples, cytotoxicity control, dose response (AID 743046); type: functional, cell-based
[24] = IC50 of insulin release inhibition, rat insulinoma INS-1E line, 5 mM glucose, cell-based (AID 1117331); type: functional
[25] = glucagon-like peptide-1 release potency in STC-1, concentration-response, half-maximal inhibitory concentration in the STC-1 line (AID 1117345); type: functional, cell-based
[26] = Potency on glucagon-like peptide 1 release, dose-response in NCI-H716 cell line, half maximal inhibitory concentration (AID 1117344); type: functional, cell-based

Chain of Kallikrein-7 (P49862 whole entry): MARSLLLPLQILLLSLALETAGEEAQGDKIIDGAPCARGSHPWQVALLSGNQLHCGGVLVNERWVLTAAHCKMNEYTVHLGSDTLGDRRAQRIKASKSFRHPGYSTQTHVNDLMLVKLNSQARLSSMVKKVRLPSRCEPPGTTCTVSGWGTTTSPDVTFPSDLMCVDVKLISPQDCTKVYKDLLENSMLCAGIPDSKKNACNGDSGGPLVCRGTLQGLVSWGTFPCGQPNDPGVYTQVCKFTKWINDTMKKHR
Chain of Paired box protein Pax-8 (Q06710 whole entry): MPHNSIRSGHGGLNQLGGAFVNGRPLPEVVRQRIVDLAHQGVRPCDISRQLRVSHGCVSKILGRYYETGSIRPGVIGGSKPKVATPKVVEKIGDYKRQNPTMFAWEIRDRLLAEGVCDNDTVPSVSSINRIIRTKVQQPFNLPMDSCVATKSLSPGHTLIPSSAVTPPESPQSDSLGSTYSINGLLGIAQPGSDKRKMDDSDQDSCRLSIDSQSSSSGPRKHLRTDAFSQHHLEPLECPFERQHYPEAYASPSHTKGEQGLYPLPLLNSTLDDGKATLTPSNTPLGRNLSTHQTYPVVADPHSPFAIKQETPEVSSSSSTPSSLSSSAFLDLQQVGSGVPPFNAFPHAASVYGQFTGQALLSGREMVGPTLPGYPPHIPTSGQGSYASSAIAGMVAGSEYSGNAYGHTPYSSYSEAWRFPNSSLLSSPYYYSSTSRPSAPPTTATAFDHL
Chain of COUP transcription factor 2 (P24468 whole entry, the tested form may be a part): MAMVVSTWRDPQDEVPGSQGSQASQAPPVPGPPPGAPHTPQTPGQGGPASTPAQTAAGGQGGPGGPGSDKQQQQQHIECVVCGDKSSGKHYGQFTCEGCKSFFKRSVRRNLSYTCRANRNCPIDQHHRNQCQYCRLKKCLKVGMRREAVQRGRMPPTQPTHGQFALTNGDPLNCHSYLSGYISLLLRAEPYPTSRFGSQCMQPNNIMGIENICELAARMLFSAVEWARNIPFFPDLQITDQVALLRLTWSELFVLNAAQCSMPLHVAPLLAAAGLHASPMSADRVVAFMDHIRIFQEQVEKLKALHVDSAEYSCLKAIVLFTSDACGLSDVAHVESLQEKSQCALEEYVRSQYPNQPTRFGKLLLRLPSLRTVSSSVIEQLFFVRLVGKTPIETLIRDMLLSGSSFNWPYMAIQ
Chain of Beta-galactosidase (Q8VNN2 whole entry): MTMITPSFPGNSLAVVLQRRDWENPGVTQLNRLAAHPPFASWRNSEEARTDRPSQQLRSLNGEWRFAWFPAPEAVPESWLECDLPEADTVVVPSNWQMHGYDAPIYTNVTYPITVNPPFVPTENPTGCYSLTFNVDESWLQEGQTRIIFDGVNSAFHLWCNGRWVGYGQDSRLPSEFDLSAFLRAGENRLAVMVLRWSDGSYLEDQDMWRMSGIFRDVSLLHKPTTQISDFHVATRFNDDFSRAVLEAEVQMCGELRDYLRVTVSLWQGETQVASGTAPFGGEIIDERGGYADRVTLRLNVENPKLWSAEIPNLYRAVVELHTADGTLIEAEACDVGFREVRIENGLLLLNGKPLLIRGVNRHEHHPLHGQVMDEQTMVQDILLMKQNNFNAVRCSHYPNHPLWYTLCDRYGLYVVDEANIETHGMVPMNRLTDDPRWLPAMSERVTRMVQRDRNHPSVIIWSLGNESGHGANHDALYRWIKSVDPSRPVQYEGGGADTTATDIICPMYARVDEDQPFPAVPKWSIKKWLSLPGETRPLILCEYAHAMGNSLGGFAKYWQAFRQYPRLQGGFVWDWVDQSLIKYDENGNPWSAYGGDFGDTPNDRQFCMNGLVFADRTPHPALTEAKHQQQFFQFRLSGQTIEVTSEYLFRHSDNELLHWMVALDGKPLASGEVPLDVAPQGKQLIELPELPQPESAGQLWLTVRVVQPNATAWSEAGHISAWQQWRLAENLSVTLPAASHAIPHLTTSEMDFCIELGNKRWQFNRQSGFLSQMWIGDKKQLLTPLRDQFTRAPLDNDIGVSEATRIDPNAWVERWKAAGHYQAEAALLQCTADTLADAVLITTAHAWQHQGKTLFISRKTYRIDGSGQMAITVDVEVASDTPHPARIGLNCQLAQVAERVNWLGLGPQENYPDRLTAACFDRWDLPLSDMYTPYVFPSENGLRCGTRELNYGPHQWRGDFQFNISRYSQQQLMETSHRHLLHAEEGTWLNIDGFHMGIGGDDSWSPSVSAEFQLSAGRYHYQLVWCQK
T1 sequence (P65502 whole entry): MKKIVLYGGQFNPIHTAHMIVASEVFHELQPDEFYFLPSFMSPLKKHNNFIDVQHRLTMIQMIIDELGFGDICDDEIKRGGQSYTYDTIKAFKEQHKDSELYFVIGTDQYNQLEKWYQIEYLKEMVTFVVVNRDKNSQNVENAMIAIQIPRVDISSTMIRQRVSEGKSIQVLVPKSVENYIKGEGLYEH
Chain of NS3 (A3EZJ3 whole entry): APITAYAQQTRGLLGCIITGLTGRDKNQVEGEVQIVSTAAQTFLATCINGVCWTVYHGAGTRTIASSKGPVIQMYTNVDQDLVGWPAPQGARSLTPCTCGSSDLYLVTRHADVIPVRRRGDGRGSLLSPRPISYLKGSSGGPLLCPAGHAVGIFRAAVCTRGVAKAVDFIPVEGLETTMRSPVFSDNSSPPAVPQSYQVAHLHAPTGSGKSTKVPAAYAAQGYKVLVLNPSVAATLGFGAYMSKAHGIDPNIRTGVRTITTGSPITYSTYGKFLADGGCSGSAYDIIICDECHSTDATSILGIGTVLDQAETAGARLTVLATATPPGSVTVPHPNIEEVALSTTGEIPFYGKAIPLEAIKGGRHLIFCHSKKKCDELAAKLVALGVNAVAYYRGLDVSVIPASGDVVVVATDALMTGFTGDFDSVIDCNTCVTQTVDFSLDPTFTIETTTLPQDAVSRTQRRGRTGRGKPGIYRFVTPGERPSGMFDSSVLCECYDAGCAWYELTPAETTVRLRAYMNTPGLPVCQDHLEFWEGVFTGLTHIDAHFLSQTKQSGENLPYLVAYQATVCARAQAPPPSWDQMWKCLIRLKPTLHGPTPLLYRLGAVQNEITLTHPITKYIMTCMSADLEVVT
Chain of Oxysterols receptor LXR-beta (P55055 whole entry, the tested form may be a part): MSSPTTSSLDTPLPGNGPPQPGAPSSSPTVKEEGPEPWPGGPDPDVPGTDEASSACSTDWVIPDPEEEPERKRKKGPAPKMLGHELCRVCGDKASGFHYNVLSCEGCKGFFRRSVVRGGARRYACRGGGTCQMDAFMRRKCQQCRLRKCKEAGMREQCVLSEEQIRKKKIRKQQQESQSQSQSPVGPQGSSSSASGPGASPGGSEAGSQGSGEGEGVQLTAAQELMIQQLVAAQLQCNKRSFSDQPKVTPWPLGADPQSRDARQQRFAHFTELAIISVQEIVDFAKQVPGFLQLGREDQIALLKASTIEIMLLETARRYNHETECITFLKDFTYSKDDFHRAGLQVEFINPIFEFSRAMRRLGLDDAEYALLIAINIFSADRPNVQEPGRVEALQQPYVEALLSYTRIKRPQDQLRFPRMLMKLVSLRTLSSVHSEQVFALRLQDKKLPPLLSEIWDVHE

SMILES: Cc1cc(OCC(=O)N(C)Cc2ccccc2)ccc1Cl
- AC50 (INS1): > 260 µM (inactive)
- IC50 (Beta-galactosidase): > 80 µM (inactive)

SMILES: O=C(CSCc1ccccc1)NNC(=S)Nc1cccc(Cl)c1Cl
- IC50 [1]: > 122 µM (inactive)

SMILES: COc1ccc(OCC(=O)N2CCN(C/C=C/c3ccccc3)CC2)cc1
- IC50 (Beta-galactosidase): > 80 µM (inactive)

SMILES: Cc1[nH][nH]c(=O)c1C(c1c(C)[nH][nH]c1=O)c1cn(Cc2cccc3ccccc23)c2ccccc12
- IC50 [2]: 6.89 µM (active)
- IC50 [3]: 19.3 µM (active)
- IC50 [4]: 14.7 µM (active)
- IC50 [5]: 3.36 µM (active)
- IC50 [6]: 5.32 µM (active)
- AC50 [7]: 11.4 µM (active)

SMILES: Cc1n[nH]c(O)c1C(c1c(C)n[nH]c1O)c1cn(Cc2cccc3ccccc23)c2ccccc12
- IC50 [8]: 12.5 µM (active)
- CC50 (Vero [9]): > 40 µM (active)

SMILES: CCCCOc1ccccc1C(=O)NNC(=S)NC(=O)c1ccccc1[N+](=O)[O-]
- IC50 [1]: 20.8 µM (inactive)
- IC50 (Vero [10]): > 12.5 µM (active)
- EC50 [11]: > 38 µM (not active)
- IC50 (NS3): 12.2 µM (not active)
- CC50 (Vero [12]): 15.8 µM (active)
- EC50 [13]: > 150 µM (inactive)

SMILES: CSc1ccc(C2NC(=O)c3ccccc3N2)cc1 (configuration not stated)
- EC50 (Kallikrein-7): > 69.5 µM (inactive)

SMILES: COc1ccc(NC(=O)C2Cc3c(-c4ccc5c(c4)OCO5)ccnc3O2)cc1OC (configuration not stated)
- IC50 [14]: 8.73 µM (active)

SMILES: OC(c1ccccc1)c1nc(-c2cnc3ccccc3c2)cs1 (configuration not stated)
- EC50 [15]: > 67.6 µM (inactive)

SMILES: O=C(Nc1ccc(C(F)(F)F)cc1)N1C[C@@H]2N[C@H](C1)[C@@H]2c1ccc(-c2ccccc2)cc1
- AC50 [16]: 33.8 µM (active)
- AC50 (Paired box protein Pax-8): 8.62 µM (active)
- AC50 [17]: 9.06 µM (active)

SMILES: Cc1ccc(S(=O)(=O)N(C)C[C@@H]2Oc3ccc(NS(=O)(=O)c4ccc(Cl)cc4)cc3CC(=O)N([C@@H](C)CO)C[C@@H]2C)cc1
- AC50 [18]: 28 µM (active)
- AC50 (HEK293): 28 µM (active)

SMILES: CC(C)CC#Cc1ccc2c(c1)O[C@@H](CN(C)Cc1ccncc1)[C@H](C)CN([C@H](C)CO)S2(=O)=O
- AC50 [19]: 32.6 µM (active)
- AC50 [20]: 48.9 µM (active)
- AC50 [21]: 40.7 µM (active)
- AC50 (Paired box protein Pax-8): 4.41 µM (active)

SMILES: Fc1cccc(CN2C[C@@H]3N[C@H](C2)[C@@H]3c2ccc(-c3ccccc3)cc2)c1
- AC50 [19]: 39.9 µM (active)
- AC50 [21]: 31 µM (active)
- AC50 [22]: 27.7 µM (active)
- AC50 [17]: 7.52 µM (active)
- AC50 [23]: 15.1 µM (active)

SMILES: Cc1c(N)cccc1C(F)(F)F
- IC50 [24]: > 33.3 µM (inactive)
- IC50 [25]: > 40 µM (inactive)
- IC50 [26]: > 40 µM (inactive)

SMILES: CC/N=c1\scc(-c2ccc3c(c2)NC(=O)CO3)n1N=C1CCCC1
- EC50 [11]: 2.31 µM (active)
- EC50 [13]: > 160 µM (inactive)
- IC50 [14]: 8.75 µM (active)

SMILES: COc1cc(/C=N/NC(=O)c2c(C)nc3ccc(Cl)cn23)cc(OC)c1OC
- EC50 (Kallikrein-7): 29 µM (inactive)
